# Experiments:
# Assay type in all cases: in vivo
# Setaria italica = experiment: Weeding activity in screening conditions (Example 12); conditions: 25 days
# Text: (§1) Two sets of small square tanks having 11 cm. sides, filled with field earth admixed with 30% of sand, were sowed at a depth of 0.5-1 cm. with the following grass species: Echinocloa crus galli, Setaria italica, Alopecurus myosiuroides, Lolium italicum, Digitaria sanguinalis, Avena fatua, Agrostis segetum, and Dactylis glomerata. After sowing, the earth surface of the tanks was uniformly sprayed with 2.4 cc./tank of hydroacetone solutions containing, respectively, 0, 0.05, 0.10, 0.20 and 0.30% of M3432 and of molinate, respectively, in order to obtain doses thereof corresponding to 0, 1, 2, 4, and 6 kg./ha., respectively.
# (§2) Only one set of small tanks was covered with a 1 cm. layer of earth just after the treatment. All of the tanks were kept in an air-conditioned chamber identical with that described in Example 7, and were watered every day. 25 days after the treatment, the final results were examined, attributing to each treatment the following scale of values: […]
# Echinocloa crus galli = experiment: as above; conditions: 25 days
# Text: as §1, §2
# Dactylis glomerata = experiment: as above; conditions: 25 days
# Text: as §1, §2
# Echinocloa spp. = experiment: Pre-emergence activity on Echinocloa in flooded cultures, pots (Example 13)
# Method: Into a set of cylindrical pots having a 200 cm^2 internal surface, sieved rice field earth in a quantity of 1 kg. per pot was introduced. After leveling and wetting with 200 cc. of water, the earth surface of the pots was uniformly sprayed with hydroacetone solutions containing, respectively, 0, 0.2, 0.3, and 0.4% active product (a.p.). 4 Ml. of the solution were sprayed onto each pot, so that the amount of active product in a set of four pots was 0, 4, 6, and 8 kg./ha., respectively. Immediately after spraying, each pot was filled with water to a level of 7 cm. over the soil surface. Thereafter, the sowing was carried out at the rate of 15 pre-germinated rice seeds per pot. Three repetitions were performed for each treatment. The pots were kept in an air-conditioned atmosphere with a daily temperature variation between 10° and 25°C and a 14 hour per day light period. […]
# The same method described in Example 7 was adopted, the only variations being the doses (0, 0.5, 1, 2 and 4 kg./ha.). the type of formulation and the sowing of Echinocloa spp. (25 slightly pre-germinated seeds per pot) instead of rice.
# rice = experiment: Comparative selectivity test on rice in submerged culture, air-conditioned atmosphere (Example 7); conditions: for Main root, average value per plant / Shoot, average value per plant / Sprouted plants: 24 days
# Method: Into a set of cylindrical pots having a 200 cm^2 internal surface, sieved rice field earth in a quantity of 1 kg. per pot was introduced. After leveling and wetting with 200 cc. of water, the earth surface of the pots was uniformly sprayed with hydroacetone solutions containing, respectively, 0, 0.2, 0.3, and 0.4% active product (a.p.). 4 Ml. of the solution were sprayed onto each pot, so that the amount of active product in a set of four pots was 0, 4, 6, and 8 kg./ha., respectively. Immediately after spraying, each pot was filled with water to a level of 7 cm. over the soil surface. Thereafter, the sowing was carried out at the rate of 15 pre-germinated rice seeds per pot. Three repetitions were performed for each treatment. The pots were kept in an air-conditioned atmosphere with a daily temperature variation between 10° and 25°C and a 14 hour per day light period. After 24 days, the percentage of sprouted plants and the length of the shoot were recorded.
# Avena fatua = experiment: Weeding activity in screening conditions (Example 12); parameters: scale not given here; conditions: 25 days
# Text: as §1, §2
# Digitaria sanguinalis = experiment: as above; parameters: scale not given here; conditions: 25 days
# Text: as §1, §2
# Lolium italicum = experiment: as above; parameters: scale not given here; conditions: 25 days
# Text: as §1, §2
# Alopecurus myosiuroides = experiment: as above; parameters: scale not given here; conditions: 25 days
# Text: as §1, §2
# Agrostis segetum = experiment: as above; parameters: scale not given here; conditions: 25 days
# Text: as §1, §2
# [1] = Treated surface covered with 1 cm earth layer, 2 kg./ha.
# [2] = Treated surface covered with 1 cm earth layer, 4 kg./ha.
# [3] = Treated surface covered with 1 cm earth layer, 6 kg./ha.
# [4] = Test No. 1, hydroacetone solution, 2 kg./ha., 22 days
# [5] = Test No. 1, hydroacetone solution, 4 kg./ha., 22 days
# [6] = Test No. 2, hydroacetone solution, 0.5 kg./ha., 21 days
# [7] = Test No. 2, hydroacetone solution, 1 kg./ha., 21 days
# [8] = Test No. 2, hydroacetone solution, 2 kg./ha., 21 days
# [9] = Test No. 3, 50% emulsifiable oil, 2 kg./ha., 27 days
# [10] = Test No. 3, 50% emulsifiable oil, 4 kg./ha., 27 days
# [11] = Test No. 3, hydroacetone solution, 2 kg./ha., 27 days
# [12] = Test No. 3, hydroacetone solution, 4 kg./ha., 27 days
smiles,measurement,setting,value
"CCC(C)N(C(=O)SCc1ccccc1)C(C)CC (centres unmarked) [M3432, S-benzyl-N,N-disec.butylthiocarbamate]",Weeding activity,"Setaria italica; Surface, 1 kg./ha.",3
same,Weeding activity,"Setaria italica; Surface, 2 kg./ha.",3
same,Weeding activity,"Setaria italica; Surface, 4 kg./ha.",4/3
same,Weeding activity,"Setaria italica; Surface, 6 kg./ha.",4/3
same,Weeding activity,Setaria italica; [1],3/4
same,Weeding activity,Setaria italica; [2],4/3
same,Weeding activity,Setaria italica; [3],4
same,Weeding activity,"Echinocloa crus galli; Surface, 1 kg./ha.",3
same,Weeding activity,"Echinocloa crus galli; Surface, 2 kg./ha.",3/4
same,Weeding activity,"Echinocloa crus galli; Surface, 4 kg./ha.",4/3
same,Weeding activity,"Echinocloa crus galli; Surface, 6 kg./ha.",4
same,Weeding activity,Echinocloa crus galli; [1],4/3
same,Weeding activity,Echinocloa crus galli; [2],4
same,Weeding activity,Echinocloa crus galli; [3],4
same,Weeding activity,"Dactylis glomerata; Surface, 1 kg./ha.",3/4
same,Weeding activity,"Dactylis glomerata; Surface, 2 kg./ha.",4
same,Weeding activity,"Dactylis glomerata; Surface, 4 kg./ha.",4/3
same,Weeding activity,"Dactylis glomerata; Surface, 6 kg./ha.",4
same,Weeding activity,Dactylis glomerata; [1],4
same,Weeding activity,Dactylis glomerata; [2],4
same,Weeding activity,Dactylis glomerata; [3],4
same,Main root,Echinocloa spp.; [4],0 cm.
same,Shoot,Echinocloa spp.; [4],0 cm.
same,Stand (Sprouted plants),Echinocloa spp.; [4],0%
same,Main root,Echinocloa spp.; [5],0 cm.
same,Shoot,Echinocloa spp.; [5],0 cm.
same,Stand (Sprouted plants),Echinocloa spp.; [5],0%
same,Main root,Echinocloa spp.; [6],3.28 cm.
same,Shoot,Echinocloa spp.; [6],8.81 cm.
same,Stand,Echinocloa spp.; [6],62%
same,Main root,Echinocloa spp.; [7],0 cm.
same,Shoot,Echinocloa spp.; [7],0 cm.
same,Stand,Echinocloa spp.; [7],0%
same,Main root,Echinocloa spp.; [8],0 cm.
same,Shoot,Echinocloa spp.; [8],0 cm.
same,Stand,Echinocloa spp.; [8],0%
same,Main root,Echinocloa spp.; [9],0 cm.
same,Shoot,Echinocloa spp.; [9],0 cm.
same,Stand,Echinocloa spp.; [9],0%
same,Main root,Echinocloa spp.; [10],0 cm.
same,Shoot,Echinocloa spp.; [10],0 cm.
same,Stand,Echinocloa spp.; [10],0%
same,Main root,Echinocloa spp.; [11],0 cm.
same,Shoot,Echinocloa spp.; [11],0 cm.
same,Stand,Echinocloa spp.; [11],0%
same,Main root,Echinocloa spp.; [12],0 cm.
same,Shoot,Echinocloa spp.; [12],0 cm.
same,Stand,Echinocloa spp.; [12],0%
same,"Main root, average value per plant",rice; 4 kg./ha.,8.3 cm.
same,"Shoot, average value per plant",rice; 4 kg./ha.,17.8 cm.
same,Sprouted plants,rice; 4 kg./ha.,60.0%
same,"Main root, average value per plant",rice; 6 kg./ha.,10.4 cm.
same,"Shoot, average value per plant",rice; 6 kg./ha.,21.1 cm.
same,Sprouted plants,rice; 6 kg./ha.,53.3%
same,"Main root, average value per plant",rice; 8 kg./ha.,10.1 cm.
same,"Shoot, average value per plant",rice; 8 kg./ha.,23.9 cm.
same,Sprouted plants,rice; 8 kg./ha.,77.7%
same,Weeding activity,"Avena fatua; Surface, 1 kg./ha.",2/3
same,Weeding activity,"Avena fatua; Surface, 2 kg./ha.",3
same,Weeding activity,"Avena fatua; Surface, 4 kg./ha.",3
same,Weeding activity,"Avena fatua; Surface, 6 kg./ha.",3
same,Weeding activity,Avena fatua; [1],4
same,Weeding activity,Avena fatua; [2],4
same,Weeding activity,Avena fatua; [3],4
same,Weeding activity,"Digitaria sanguinalis; Surface, 1 kg./ha.",3
same,Weeding activity,"Digitaria sanguinalis; Surface, 2 kg./ha.",4
same,Weeding activity,"Digitaria sanguinalis; Surface, 4 kg./ha.",4
same,Weeding activity,"Digitaria sanguinalis; Surface, 6 kg./ha.",4
same,Weeding activity,Digitaria sanguinalis; [1],4
same,Weeding activity,Digitaria sanguinalis; [2],4
same,Weeding activity,Digitaria sanguinalis; [3],4
same,Weeding activity,"Lolium italicum; Surface, 1 kg./ha.",4
same,Weeding activity,"Lolium italicum; Surface, 2 kg./ha.",4
same,Weeding activity,"Lolium italicum; Surface, 4 kg./ha.",4
same,Weeding activity,"Lolium italicum; Surface, 6 kg./ha.",4
same,Weeding activity,Lolium italicum; [1],4
same,Weeding activity,Lolium italicum; [2],4
same,Weeding activity,Lolium italicum; [3],4
same,Weeding activity,"Alopecurus myosiuroides; Surface, 1 kg./ha.",1/2
same,Weeding activity,"Alopecurus myosiuroides; Surface, 2 kg./ha.",2
same,Weeding activity,"Alopecurus myosiuroides; Surface, 4 kg./ha.",3
same,Weeding activity,"Alopecurus myosiuroides; Surface, 6 kg./ha.",4
same,Weeding activity,Alopecurus myosiuroides; [1],4
same,Weeding activity,Alopecurus myosiuroides; [2],4
same,Weeding activity,Alopecurus myosiuroides; [3],4
same,Weeding activity,"Agrostis segetum; Surface, 1 kg./ha.",4
same,Weeding activity,"Agrostis segetum; Surface, 2 kg./ha.",4
same,Weeding activity,"Agrostis segetum; Surface, 6 kg./ha.",4
same,Weeding activity,Agrostis segetum; [1],4
same,Weeding activity,Agrostis segetum; [2],4
same,Weeding activity,Agrostis segetum; [3],4
"CCSC(=O)N1CCCCCC1 [Molinate, ethyl-1-hexamethylene-imino-carbothiolate, reference compound]",Weeding activity,"Setaria italica; Surface, 2 kg./ha.",0/1
same,Weeding activity,"Setaria italica; Surface, 4 kg./ha.",0/1
same,Weeding activity,"Setaria italica; Surface, 6 kg./ha.",0/1
same,Weeding activity,Setaria italica; [1],3
same,Weeding activity,Setaria italica; [2],3
same,Weeding activity,Setaria italica; [3],3
same,Weeding activity,"Echinocloa crus galli; Surface, 2 kg./ha.",2
same,Weeding activity,"Echinocloa crus galli; Surface, 4 kg./ha.",1/2
same,Weeding activity,"Echinocloa crus galli; Surface, 6 kg./ha.",1/2
same,Weeding activity,Echinocloa crus galli; [1],3
same,Weeding activity,Echinocloa crus galli; [2],3
same,Weeding activity,Echinocloa crus galli; [3],3/4
same,Weeding activity,"Dactylis glomerata; Surface, 2 kg./ha.",1/2
same,Weeding activity,"Dactylis glomerata; Surface, 4 kg./ha.",1/2
same,Weeding activity,"Dactylis glomerata; Surface, 6 kg./ha.",3
same,Weeding activity,Dactylis glomerata; [1],3
same,Weeding activity,Dactylis glomerata; [2],4/3
same,Weeding activity,Dactylis glomerata; [3],4/3
same,Main root,Echinocloa spp.; [5],0 cm.
same,Shoot,Echinocloa spp.; [5],0 cm.
same,Stand (Sprouted plants),Echinocloa spp.; [5],0%
same,"Main root, average value per plant",rice; 4 kg./ha.,7.4 cm.
same,"Shoot, average value per plant",rice; 4 kg./ha.,15.3 cm.
same,Sprouted plants,rice; 4 kg./ha.,42.3%
same,"Main root, average value per plant",rice; 6 kg./ha.,3.9 cm.
same,"Shoot, average value per plant",rice; 6 kg./ha.,8.2 cm.
same,Sprouted plants,rice; 6 kg./ha.,20.0%
same,"Main root, average value per plant",rice; 8 kg./ha.,4.6 cm.
same,"Shoot, average value per plant",rice; 8 kg./ha.,6.6 cm.
same,Sprouted plants,rice; 8 kg./ha.,11.0%
same,Margin of safety on rice,rice; rice growth unfavorably affected even at 6 kg./ha.,narrow margin of safety
same,Weeding activity,"Avena fatua; Surface, 2 kg./ha.",1
same,Weeding activity,"Avena fatua; Surface, 4 kg./ha.",3/2
same,Weeding activity,"Avena fatua; Surface, 6 kg./ha.",4/3
same,Weeding activity,Avena fatua; [1],4
same,Weeding activity,Avena fatua; [2],4
same,Weeding activity,Avena fatua; [3],4
same,Weeding activity,"Digitaria sanguinalis; Surface, 2 kg./ha.",0
same,Weeding activity,"Digitaria sanguinalis; Surface, 4 kg./ha.",3/4
same,Weeding activity,"Digitaria sanguinalis; Surface, 6 kg./ha.",4
same,Weeding activity,Digitaria sanguinalis; [1],4
same,Weeding activity,Digitaria sanguinalis; [2],4
same,Weeding activity,Digitaria sanguinalis; [3],4
same,Weeding activity,"Lolium italicum; Surface, 2 kg./ha.",0/1
same,Weeding activity,"Lolium italicum; Surface, 4 kg./ha.",2
same,Weeding activity,"Lolium italicum; Surface, 6 kg./ha.",2/3
same,Weeding activity,Lolium italicum; [1],3/2
same,Weeding activity,Lolium italicum; [2],3/4
same,Weeding activity,Lolium italicum; [3],4
same,Weeding activity,"Alopecurus myosiuroides; Surface, 2 kg./ha.",1/2
same,Weeding activity,"Alopecurus myosiuroides; Surface, 4 kg./ha.",2
same,Weeding activity,"Alopecurus myosiuroides; Surface, 6 kg./ha.",3
same,Weeding activity,Alopecurus myosiuroides; [1],3
same,Weeding activity,Alopecurus myosiuroides; [2],4/3
same,Weeding activity,Alopecurus myosiuroides; [3],4/3
same,Weeding activity,"Agrostis segetum; Surface, 2 kg./ha.",2
same,Weeding activity,"Agrostis segetum; Surface, 4 kg./ha.",4
same,Weeding activity,"Agrostis segetum; Surface, 6 kg./ha.",4
same,Weeding activity,Agrostis segetum; [1],4
same,Weeding activity,Agrostis segetum; [2],4
same,Weeding activity,Agrostis segetum; [3],4

# Source: patent publication US3930838A, “S-benzyl-N,N-disec-butylthiocarbamate and its use as a rice field herbicide and a rice growth stimulant” (priority 1970, dated 1976)
